Test results as given in patent publication US20130274342A1, “COMPOSITIONS AND METHODS FOR TREATING COUGH” (Cerecor, Inc., priority 2012, published 2013).

Experiments:
Caco-2 cells = assay: Memantine in vitro intestinal permeability (Caco-2 cells); format: in vitro ADME
[1] = Stability of memantine in alkaline conditions, solution and lozenge (Example 5); format: physicochemical
Method: The stability of memantine is studied within a pH range in both solution and in a lozenge dosage form. It is determined that when memantine is included in a buffer solution at a pH 8.0 or higher, memantine degrades and/or precipitates out of solution. It is determined that in a solution with a pH of 8.0, only about 85.3 percent of memantine is recovered; in a solution with a pH of 9.0, only about 29.8 percent of memantine is recovered; and in a solution with a pH of 10.0, only about 0.7 percent of memantine is recovered. In a solution with a pH of 1.0, it is determined that 97.6 percent of memantine is recovered and thus memantine is determined to be stable. It is also determined that memantine is unstable in a lozenge dosage form when it is in contact with an alkalinizing agent. It is determined that when memantine and sodium hydroxide are added together in a lozenge dosage form, only about 40% to about 60% memantine is recovered, with the remaining memantine degrading and/or precipitating out during the lozenge preparation process. It is determined that when memantine and sodium carbonate are added together in a lozenge dosage form, only about 40% to about 60% memantine is recovered, with the remaining memantine degrading and/or precipitating out during the lozenge preparation process.

[2] = Pharmacokinetic evaluation of memantine with sodium hydroxide, menthol and optionally NH4Cl in male beagle dogs (Example 2); format: in vivo; conditions: 0.4 mg/kg, Route Oral
Method: The pharmacokinetics of memantine were evaluated after buccal administration in male beagle dogs. Memantine was formulated in water, 3.3 mg/mL sodium hydroxide in water, or 7.5 mg/mL sodium carbonate in water. All dogs received a 0.4 mg/kg dose of memantine. Plasma levels of memantine were determined by LC-MS/MS. Pharmacokinetic parameters were determined for the memantine plasma data.
For dosing, dogs were anesthetized with an IV injection of ketamine/diazepam, and maintained by isoflurane intubation during the buccal administration. The dosing solution was pipetted into a circular cylinder to concentrate the dosing solution on one area of the mucosa. At just prior to the 15 minute sample time point, the oral cavity was rinsed with 5 mL of water and dried with gauze. Immediately after the rinse, the 15 minute sample was collected.
The pharmacokinetics of memantine were evaluated after buccal administration in male beagle dogs using procedures similar to those used in Example 1, except that menthol or menthol and ammonium chloride where co-administered with the sodium hydroxide (Table 2). Table 2 provides a summary of pharmacokinetic findings, comparing memantine compositions containing an alkalinizing agent to increase local pH and a permeation enhancer (menthol), and optionally a urinary acidifying agent. […] Further addition of a urinary acidifying agent (e.g., NH4Cl) further reduces T1/2, indicating more rapid elimination of memantine.

[3] = system: citric acid-induced cough; assay: Citric acid-induced cough in guinea pigs, oral memantine vs vehicle; format: in vivo; conditions: oral administration, dose response (FIG. 2)
[4] = cited from earlier work
[5] = Memantine ex vivo buccal permeability (porcine buccal mucosa); format: in vitro ADME
[6] = absorption limited to the distal small bowel; cited from earlier work

Compound	effect as permeation enhancer on memantine Caco-2 permeability (Caco-2 cells; FIG. 6)	memantine recovered ([1]; solution with a pH of 1.0) [%]	memantine recovered ([1]; solution with a pH of 8.0)	memantine recovered ([1]; solution with a pH of 9.0)	memantine recovered ([1]; solution with a pH of 10.0)	AUC0-∞ ([2]; 3.3 mg/ml sodium hydroxide + 5 mg/ml menthol) [ng·h/mL]	Cmax/Dose ([2]; 3.3 mg/ml sodium hydroxide + 5 mg/ml menthol + 20 mg/kg NH4Cl)	AUC0-t ([2]; Control) [ng·h/mL]	efficacy on citric acid-induced cough relative to vehicle control [3]	permeability of memantine in Caco-2 cells (Caco-2 cells; increase in pH from pH 5.0 to 10.5 (FIG. 3))	dissociation constant (pKa) [4]	increase in permeability of memantine in porcine buccal mucosa ([5]; increase in pH from 5.5 to 9.0 (FIG. 4))	increase in permeability of memantine in porcine buccal mucosa ([5]; increase in pH from 8.0 to 9.0 (FIG. 5))	time to maximum plasma concentration (Tmax) [6] [h]
polysorbate 80	ineffective	–	–	–	–	–	–	–	–	–	–	–	–	–
CC12CC3CC(C)(C1)CC(N)(C3)C2 [memantine, 3,5-dimethyl-1-adamantanamine]	–	97.6	about 85.3%	about 29.8%	about 0.7%	126	26.03	120	dose-dependent antitussive effects	gradually increases	~10	over 100 fold	about 3.8 fold	4 to 7
